The values that follow come from BindingDB's records for doi:10.1021/jm00003a001 (Glaxo Research Institute, 1995).

In this experiment the target is DNA topoisomerase 1 (Bos taurus). Nature of the experiment: Inhibition of topoisomerase I activity was determined in vitro by using the cleavable complex assay(calf thymus).
What is called IC50 is the midpoint of a concentration-inhibition curve. Lower therefore signals greater potency in that assay. `CC[C@@]1(O)C(=O)OCc2c1cc1n(c2=O)Cc2c-1nc1cc3c(cc1c2CN1CCN(C)CC1)OCCO3` [8-ethyl-8-hydroxy-15-(4-methylhexahydro-1-pyrazinylmethyl)-(8S)-2,3,8,9,12,14-hexahydro-11H-[1,4]dioxino[2,3-g]pyrano[3',4':6,7]indolizino[1,2-b]quinoline-9,12-dione with trifluoroaceticacid] came in with an IC50 of 416 nM.
The result for `CC[C@@]1(O)C(=O)OCc2c1cc1n(c2=O)Cc2c-1nc1cc3c(cc1c2CCl)OCO3` [14-chloromethyl-7-ethyl-7-hydroxy-(7S)-7,8,11,13-tetrahydro-10H-[1,3]dioxolo[4,5-g]pyrano[3',4':6,7]indolizino[1,2-b]quinoline-8,11-dione] reads 15 nM; that for `CC[C@@]1(O)C(=O)OCc2c1cc1n(c2=O)Cc2c-1nc1cc3c(cc1c2CCl)OCCO3` [15-chloromethyl-8-ethyl-8-hydroxy-(8S)-2,3,8,9,12,14-hexahydro-11H-[1,4]dioxino[2,3-g]pyrano[3',4':6,7]indolizino[1,2-b]quinoline-9,12-dione], 11 nM.
